From patent publication US10106534B2 (CELGENE QUANTICEL RESEARCH, INC., priority 2014, dated 2018) come the findings set out here.

One experiment addresses JMJD2C (Homo sapiens (Human), UniProt Q9H3R0). The experiment is described as follows: In vitro enzyme inhibition assay for JMJD2C activity (TR-FRET). Type of experiment: biochemical. In short, it runs like this:
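Demethylation product H3K9me2 quantified by TR-FRET ratio 665/615 after EDTA stop and 1 h with Eu-anti-H3K9me2 and streptavidin-APC; IC50 by curve fit. Reaction: 0.3 nM JMJD2C (AA 2-372, baculovirus), 2 μM α-ketoglutarate, 300 nM biotin-H3K9me3 peptide, pH 7.3 HEPES with Fe(II)/ascorbate, 30 min room temperature.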

The target in the next experiment is JMJD3 (Homo sapiens, UniProt O15054). The experiment in a line: In vitro enzyme inhibition assay for JMJD3 activity (TR-FRET). Type of experiment: biochemical. On the procedure:
This assay determines the ability of a test compound to inhibit JMJD3 demethylase activity.
The enzymatic assay of JMJD3 activity is based upon Time Resolved-Fluorescence Resonance Energy Transfer (TR-FRET) detection. […] Reaction product was determined quantitatively by TR-FRET after the addition of detection reagent Phycolink Streptavidin-allophycocyanin (Prozyme) and Europium-anti-di-methylated histone H3 lysine 27 (H3K27me2) antibody (PerkinElmer) in the presence of 5 mM EDTA in LANCE detection buffer (PerkinElmer) at a final concentration of 50 nM and 1 nM, respectively.
The reaction mixture was incubated at room temperature for 30 minutes, and terminated by the addition of 6 μL of 5 mM EDTA in LANCE detection buffer containing 100 nM Phycolink Streptavidin-allophycocyanin and 2 nM Europium-anti-H3K27me2 antibody.

The subject of experiment [1] is KYSE-150 esophageal carcinoma cell line. The experiment is described as follows: In vitro cell-based assay: cellular proliferation via BrdU incorporation (ELISA). On the set-up: species or system human. The conditions noted are these: Homo sapiens, KYSE-150, 168 hours compound incubation. A digest of the protocol: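 BrdU incorporation during S-phase, detected colorimetrically at 450 nm by peroxidase ELISA, measured proliferation after 168 h compound exposure.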

Where only a bound is given, the exact number is not on record here.

Sequence of JMJD2C (Q9H3R0 2-372): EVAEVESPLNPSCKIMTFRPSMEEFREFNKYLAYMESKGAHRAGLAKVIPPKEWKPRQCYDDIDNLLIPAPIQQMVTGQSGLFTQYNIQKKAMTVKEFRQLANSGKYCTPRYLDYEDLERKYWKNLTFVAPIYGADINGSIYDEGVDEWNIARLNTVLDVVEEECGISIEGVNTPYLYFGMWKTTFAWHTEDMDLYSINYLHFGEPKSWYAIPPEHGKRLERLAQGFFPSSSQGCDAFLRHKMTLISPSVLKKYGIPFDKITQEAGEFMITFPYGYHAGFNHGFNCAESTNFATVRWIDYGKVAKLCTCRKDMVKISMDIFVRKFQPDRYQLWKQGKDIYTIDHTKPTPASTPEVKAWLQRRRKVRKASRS

As for `CN(c1ccc2c(c1)CCC[C@H]2CNc1cnccc1C(=O)O)c1ccccn1` [Example 11, 3-({[(1R)-6-[methyl(pyridin-2-yl)amino]-1,2,3,4-tetrahydronaphthalen-1-yl]methyl}amino)pyridine-4-carboxylic acid], the half-inhibitory concentration (IC50) against JMJD2C is 0.1 to 1 µM; at JMJD3, 1 to 10 µM; in experiment [1], ≤ 0.1 µM.
For `O=C(O)c1ccncc1NCC1CCOc2cc(N3CCCc4ccccc43)ccc21` (centres unmarked) [Example 16, 3-({[7-(1,2,3,4-tetrahydroquinolin-1-yl)-3,4-dihydro-2H-1-benzopyran-4-yl]methyl}amino)pyridine-4-carboxylic acid], in that order: 0.1 to 1 µM, 1 to 10 µM and 0.1 to 1 µM.
For `O=C(O)c1ccncc1NCC1CCOc2cc(N3CCc4ccccc43)ccc21` (centres unmarked) [Example 17, 3-({[7-(2,3-dihydro-1H-indol-1-yl)-3,4-dihydro-2H-1-benzopyran-4-yl]methyl}amino)pyridine-4-carboxylic acid], in that order: 0.1 to 1 µM, 1 to 10 µM and 0.1 to 1 µM.
For `CN(c1ccccc1)c1ccc2c(c1)OCC[C@H]2CNc1cnccc1C(=O)O` [Example 18, 3-({[(4R)-7-[methyl(phenyl)amino]-3,4-dihydro-2H-1-benzopyran-4-yl]methyl}amino)pyridine-4-carboxylic acid], in that order: 0.1 to 1 µM, 0.1 to 1 µM and ≤ 0.1 µM.
For `CN(c1cccc(F)c1)c1ccc2c(c1)OCC[C@H]2CNc1cnccc1C(=O)O` [Example 20, 3-({[(4R)-7-[(3-fluorophenyl)(methyl)amino]-3,4-dihydro-2H-1-benzopyran-4-yl]methyl}amino)pyridine-4-carboxylic acid], the values for the IC50 (against JMJD2C; at JMJD3; in experiment [1]) were 0.1 to 1 µM, 1 to 10 µM and ≤ 0.1 µM, respectively.
`CN(c1ccc(F)cc1)c1ccc2c(c1)OCC[C@H]2CNc1cnccc1C(=O)O` [Example 21, 3-({[(4R)-7-[(4-fluorophenyl)(methyl)amino]-3,4-dihydro-2H-1-benzopyran-4-yl]methyl}amino)pyridine-4-carboxylic acid]: the values for the IC50 (at JMJD2C; at JMJD3; in experiment [1]) were 0.1 to 1 µM, 1 to 10 µM and ≤ 0.1 µM, respectively.
The corresponding values for `Cc1ccc(N(C)c2ccc3c(c2)OCC[C@H]3CNc2cnccc2C(=O)O)cc1` [Example 22, 3-({[(4R)-7-[methyl(4-methylphenyl)amino]-3,4-dihydro-2H-1-benzopyran-4-yl]methyl}amino)pyridine-4-carboxylic acid] are 0.1 to 1 µM, 1 to 10 µM and ≤ 0.1 µM.
`CN(c1ccc(Cl)cc1)c1ccc2c(c1)OCC[C@H]2CNc1cnccc1C(=O)O` [Example 23, 3-({[(4R)-7-[(4-chlorophenyl)(methyl)amino]-3,4-dihydro-2H-1-benzopyran-4-yl]methyl}amino)pyridine-4-carboxylic acid]: the figures for the IC50 (against JMJD2C; against JMJD3; in experiment [1]) were 0.1 to 1 µM, 1 to 10 µM and ≤ 0.1 µM, respectively.
For `CCN(c1ccccc1)c1ccc2c(c1)OCC[C@H]2CNc1cnccc1C(=O)O` [Example 24, 3-({[(4R)-7-[ethyl(phenyl)amino]-3,4-dihydro-2H-1-benzopyran-4-yl]methyl}amino)pyridine-4-carboxylic acid], in that order: 0.1 to 1 µM, 1 to 10 µM and ≤ 0.1 µM.
The corresponding values for `O=C(O)c1ccncc1NCC1CCCc2nc(-c3ccccc3)ccc21` (centres unmarked) [Example 25] are 0.1 to 1 µM, 0.1 to 1 µM and > 10 µM.
With `CN(c1ccc(OC(F)(F)F)cc1)c1ccc2c(c1)OCC[C@H]2CNc1cnccc1C(=O)O` [Example 182, 3-({[(4R)-7-{methyl[4-(trifluoromethoxy)phenyl]amino}-3,4-dihydro-2H-1-benzopyran-4-yl]methyl}amino)pyridine-4-carboxylic acid], the IC50 at JMJD2C fell in the range of 0.1 to 1 µM; against JMJD3 it was 1 to 10 µM.
